Data on 27 molecules can be found in ChEMBL document CHEMBL4041545, “Design, synthesis and biological activities of tetrandrine and fangchinoline derivatives as antitumer agents” (Bioorg Med Chem Lett, 2017).

Test [1] concerns MCF7. In words: Antiproliferative activity against human MCF7 cells after 48 hrs by MTT assay. The test is classed as functional, cell-based. As to conditions: MCF7, 48 h. A general note: Tetrazolium dyes change colour on reduction, which living cells bring about.
The subject of test [2] is HepG2. In words: Antiproliferative activity against human HepG2 cells after 48 hrs by MTT assay. As to conditions: HepG2, 48 h. The test is classed as functional, cell-based.
In test [3] the test system is HepG2. In words: Induction of apoptosis in human HepG2 cells assessed as late apoptotic cells at 0.5 uM after 48 hrs by Annexin-V FITC/propidium iodide staining based flow cytometry (reference value: 5.53%). Type of test: functional. (In flow cytometry, cells or beads pass a laser one at a time.)
The test system of test [4] is HepG2. In words: Induction of apoptosis in human HepG2 cells assessed as early apoptotic cells at 0.5 uM after 48 hrs by Annexin-V FITC/propidium iodide staining based flow cytometry (reference value: 6.62%). Type of test: functional.
Test [5] relates to HepG2. In words: Potency index, ratio of sunitinib IC50 to compound IC50 for human HepG2 cells. Type of test: functional.
For test [6], the system named is HepG2. In words: Induction of apoptosis in human HepG2 cells assessed as live cells at 0.5 uM after 48 hrs by Annexin-V FITC/propidium iodide staining based flow cytometry (reference value: 86.49%). Type of test: functional.
For test [7], the system named is MCF7. In words: Potency index, ratio of sunitinib IC50 to compound IC50 for human MCF7 cells. The test is classed as functional.
Test [8] relates to HepG2. In words: Induction of apoptosis in human HepG2 cells assessed as necrotic cells at 0.5 uM after 48 hrs by Annexin-V FITC/propidium iodide staining based flow cytometry (reference value: 1.36%). Type of test: functional.

Molecules are shown by their SMILES.

Regarding `COc1ccc2cc1Oc1ccc(cc1)C[C@H]1c3cc(c(OC)cc3CCN1C)Oc1c(OC(=O)c3ccc(Cl)cc3)c(OC)cc3c1[C@H](C2)N(C)CC3`, the IC50 came to 3.79 µM in the test on MCF7 [1] and 2.12 µM with HepG2 [2].

As to `COc1ccc2cc1Oc1ccc(cc1)C[C@H]1c3cc(c(OC)cc3CCN1C)Oc1c(OC(=O)c3ccccc3)c(OC)cc3c1[C@H](C2)N(C)CC3`, the IC50 is 6.34 µM with MCF7 [1] and 3.69 µM in the test with HepG2 [2].

On to `COc1ccc2cc1Oc1ccc(cc1)C[C@H]1c3cc(c(OC)cc3CC[N+]1(C)CC(=O)[O-])Oc1c(OC)c(OC)cc3c1[C@H](C2)N(C)CC3` (stereo not given in full), for which the IC50 in the test on MCF7 [1] is 11.6 µM; with HepG2 [2] it was 9.98 µM.

Turning to `COc1ccc2cc1Oc1ccc(cc1)C[C@H]1c3cc(c(OC)cc3CCN1C)Oc1c(OC(=O)c3cccc([N+](=O)[O-])c3)c(OC)cc3c1[C@H](C2)N(C)CC3`, the IC50 is 1.99 µM in the test on MCF7 [1] and 1.69 µM in the test on HepG2 [2].

`COc1ccc2cc1Oc1ccc(cc1)C[C@H]1c3cc(c(OC)cc3CCN1C)Oc1c(OC(=O)c3ccccc3Cl)c(OC)cc3c1[C@H](C2)N(C)CC3`: the figures for the concentration for half-maximal inhibition (IC50) with MCF7 [1] and in the test with HepG2 [2] were 3.51 µM and 1.32 µM, respectively.

Regarding `CCOc1ccc(C(=O)Oc2c(OC)cc3c4c2Oc2cc5c(cc2OC)CCN(C)[C@H]5Cc2ccc(cc2)Oc2cc(ccc2OC)C[C@@H]4N(C)CC3)cc1`, the IC50 with MCF7 [1] was 4.54 µM; in the test on HepG2 [2], 0.65 µM.

As for `COc1ccc2cc1Oc1ccc(cc1)C[C@H]1c3cc(c(OC)cc3CC[N+]1(C)CC(=O)[O-])Oc1c(OC)c(OC)cc3c1[C@H](C2)[N+](C)(CC(=O)[O-])CC3` (stereo not given in full), the IC50 turned out to be 14.6 µM with MCF7 [1] and 10 µM in the test with HepG2 [2].

In the case of `COc1ccc2cc1Oc1ccc(cc1)C[C@H]1c3cc(c(OC)cc3CCN1C)Oc1c(OC(C)=O)c(OC)cc3c1[C@H](C2)N(C)CC3`, the IC50 amounted to 6.99 µM in the test on MCF7 [1] and 5.24 µM with HepG2 [2].

Turning to `COc1ccc2cc1Oc1ccc(cc1)C[C@H]1c3cc(c(OC)cc3CCN1C)Oc1c(OC(=O)c3ccccc3OC(C)=O)c(OC)cc3c1[C@H](C2)N(C)CC3`, the results for the 50% inhibitory concentration (IC50) with MCF7 [1] and with HepG2 [2] were 5.12 µM and 1.78 µM, respectively.

As for `CCCCOc1c(OC)cc2c3c1Oc1cc4c(cc1OC)CCN(C)[C@H]4Cc1ccc(cc1)Oc1cc(ccc1OC)C[C@@H]3N(C)CC2`, the 50% inhibitory concentration (IC50) in the test with MCF7 [1] worked out at 7.34 µM; with HepG2 [2], 3.79 µM.

Turning to `COc1ccc2cc1Oc1ccc(cc1)C[C@H]1c3cc(c(OC)cc3CCN1C)Oc1c(OC(C)C)c(OC)cc3c1[C@H](C2)N(C)CC3`, the IC50 with MCF7 [1] turned out to be 7.98 µM; in the test with HepG2 [2], 4.92 µM.

Consider `CCOC(=O)C(C)[N+]1(C)CCc2cc(OC)c3cc2[C@@H]1Cc1ccc(cc1)Oc1cc(ccc1OC)C[C@H]1c2c(cc(OC)c(OC)c2O3)CCN1C` (stereo not given in full), for which the values for the IC50 with MCF7 [1] and in the test with HepG2 [2] were 10.1 µM and 13.1 µM, respectively.

Turning to `COc1ccc2cc1Oc1ccc(cc1)C[C@H]1c3cc(c(OC)cc3CCN1C)Oc1c(OC(=O)c3cccnc3)c(OC)cc3c1[C@H](C2)N(C)CC3`, the figures for the half-inhibitory concentration (IC50) in the test with MCF7 [1] and with HepG2 [2] were 4.17 µM and 1.98 µM, respectively.

For `CCC(Br)C(=O)Oc1c(OC)cc2c3c1Oc1cc4c(cc1OC)CCN(C)[C@H]4Cc1ccc(cc1)Oc1cc(ccc1OC)C[C@@H]3N(C)CC2` (stereo not given in full), the 50% inhibitory concentration (IC50) was 7.02 µM in the test with MCF7 [1] and 3.88 µM with HepG2 [2].

As to `COc1ccc2cc1Oc1ccc(cc1)C[C@H]1c3cc(c(OC)cc3CCN1C)Oc1c(OC(=O)c3cccc(Cl)c3)c(OC)cc3c1[C@H](C2)N(C)CC3`, the half-maximal inhibitory concentration (IC50) came out at 2.98 µM in the test with MCF7 [1] and 1.99 µM in the test with HepG2 [2].

With `COc1ccc2cc1Oc1ccc(cc1)C[C@H]1c3cc(c(OC)cc3CCN1C)Oc1c(OC(=O)c3ccccc3[N+](=O)[O-])c(OC)cc3c1[C@H](C2)N(C)CC3`, the IC50 is 2.57 µM in the test with MCF7 [1] and 2.95 µM in the test with HepG2 [2].

Take `CCOc1c(OC)cc2c3c1Oc1cc4c(cc1OC)CCN(C)[C@H]4Cc1ccc(cc1)Oc1cc(ccc1OC)C[C@@H]3N(C)CC2`: the half-inhibitory concentration (IC50) in the test with MCF7 [1] was determined as 8.55 µM; in the test on HepG2 [2], 5.52 µM.

Take `COc1ccc2cc1Oc1ccc(cc1)C[C@H]1c3cc(c(OC)cc3CCN1C)Oc1c(OC(=O)CCl)c(OC)cc3c1[C@H](C2)N(C)CC3`: the IC50 came to 7.13 µM with MCF7 [1] and 4.12 µM with HepG2 [2].

As to `COc1ccc2cc1Oc1ccc(cc1)C[C@H]1c3cc(c(OC)cc3CCN1C)Oc1c(OC(=O)c3ccc([N+](=O)[O-])cc3)c(OC)cc3c1[C@H](C2)N(C)CC3`, the results for the IC50 in the test on MCF7 [1] and with HepG2 [2] were 2.99 µM and 2.11 µM, respectively.

Turning to `COc1ccc2cc1Oc1ccc(cc1)C[C@H]1c3cc(c(OC)cc3CCN1C)Oc1c(OC(=O)c3cccnc3Cl)c(OC)cc3c1[C@H](C2)N(C)CC3`, the IC50 with MCF7 [1] came to 4.01 µM; in the test with HepG2 [2], 2.79 µM.

Consider `C/C=C/C=C/C(=O)Oc1c(OC)cc2c3c1Oc1cc4c(cc1OC)CCN(C)[C@H]4Cc1ccc(cc1)Oc1cc(ccc1OC)C[C@@H]3N(C)CC2`, for which the values for the IC50 with MCF7 [1] and in the test on HepG2 [2] were 6.56 µM and 4 µM, respectively.

In the case of `COc1ccc2cc1Oc1ccc(cc1)C[C@H]1c3cc(c(OC)cc3CCN1C)Oc1c(OCc3ccccc3)c(OC)cc3c1[C@H](C2)N(C)CC3`, the 50% inhibitory concentration (IC50) was found to be 3.45 µM in the test with MCF7 [1] and 0.55 µM in the test on HepG2 [2]. The Activity was determined as 28.16% with HepG2 [3], 10.47% in the test on HepG2 [4], 55.6% with HepG2 [6] and 5.77% with HepG2 [8]. In addition, the “Ratio IC50” value is 29.2 in the test with HepG2 [5] and 7.37 in the test on MCF7 [7].

Turning to `CCOC(=O)C(CC)[N+]1(C)CCc2cc(OC)c3cc2[C@@H]1Cc1ccc(cc1)Oc1cc(ccc1OC)C[C@H]1c2c(cc(OC)c(OC)c2O3)CCN1C` (stereo not given in full), the half-inhibitory concentration (IC50) amounted to 16.6 µM in the test with MCF7 [1] and 15.7 µM in the test with HepG2 [2].

As for `COc1ccc2cc1Oc1ccc(cc1)C[C@H]1c3cc(c(OC)cc3CCN1C)Oc1c(OC(=O)/C=C/c3ccccc3)c(OC)cc3c1[C@H](C2)N(C)CC3`, the half-inhibitory concentration (IC50) in the test on MCF7 [1] worked out at 6.12 µM; in the test with HepG2 [2], 3.59 µM.

For `COc1ccc2cc1Oc1ccc(cc1)C[C@H]1c3cc(c(OC)cc3CC[N+]1(C)CCO)Oc1c(OC)c(OC)cc3c1[C@H](C2)[N+](C)(CCO)CC3` (stereo not given in full), the concentration for half-maximal inhibition (IC50) with MCF7 [1] is 9.32 µM; with HepG2 [2] it was 9.67 µM.

Regarding `COc1ccc2cc1Oc1ccc(cc1)C[C@H]1c3cc(c(OC)cc3CCN1C)Oc1c(OC)c(OC)cc3c1[C@H](C2)N(C)CC3` [FANCHININ], the results for the half-maximal inhibitory concentration (IC50) in the test on MCF7 [1] and with HepG2 [2] were 8.62 µM and 6.82 µM, respectively.

Turning to `COc1ccc2cc1Oc1ccc(cc1)C[C@H]1c3cc(c(OC)cc3CCN1C)Oc1c(O)c(OC)cc3c1[C@H](C2)N(C)CC3` [FANGCHINOLINE], the IC50 in the test on MCF7 [1] came to 10.1 µM; in the test on HepG2 [2], 9.08 µM.

For orientation: IC50 means the concentration at which inhibition is half-maximal.
